Experimental data reported in ChEMBL document CHEMBL4842345, “Design, synthesis and biological evaluation of tanshinone IIA-based analogues: Potent inhibitors of microtubule formation and angiogenesis” (Eur J Med Chem, 2021).
Values after ≈ are worked out from the molar mass of the structure shown. Active and inactive are the calls of the source. No cut-off for these calls is given here.

Columns and labels:
Tubulin (Homo sapiens) [1] = target: T1, Tubulin (Homo sapiens) (UniProt P68371+Q9H4B7+P0DPH7+P68366+Q13509+Q71U36+P04350+Q3ZCM7+P07437+P68363+Q9BQE3+Q6PEY2+Q13885+Q9BVA1+Q9BUF5); assay: Induction of microtubule distruption in human A549 cells assessed as reduction in number of living cells at 2.5 to 10 uM measured after 48 hrs by immunofluorescence based laser scanning confocal microscopic analysis; assay type: cell-based; conditions: dose 2.5-10 µM
A549 [2] = assay: Antiinvasive activity in human A549 cells assessed as decrease in number of migrated A549 cells at 0.5 to 2 uM measured after 48 hrs by crystal violet staining based transwell assay; assay type: functional, cell-based; conditions: dose 0.5-2 µM
HeLa = assay: Antiproliferative activity against human HeLa cells assessed as reduction in cell viability measured after 72 hrs by MTT assay; assay type: functional, cell-based
A549 [3] = assay: Inhibition of cell migration in human A549 cells assessed as decrease in wound healing rate at 0.5 to 2 uM measured after 48 hrs by wound healing assay; assay type: functional, cell-based; conditions: dose 0.5-2 µM
HUVEC [4] = assay: Antivascular activity against HUVEC cells assessed as reduction in number of branching points measured after 6 hrs by imaging analysis; assay type: functional, cell-based; conditions: Homo sapiens, dose 0.25-1 µM
A549 [5] = assay: Induction of cell cycle arrest in human A549 cells assessed as increase in number of cells accumulation at G2/M phase at 5 uM measured after 48 hrs by flow cytometry analysis (Rvb= 16.72%); assay type: functional
A549 [6] = assay: Induction of apoptosis in human A549 cells assessed as early apoptotic cells at 2.5 uM measured after 48 hrs by Annexin V-FITC/PI staining based flow cytometry analysis (Rvb= 0.72%); assay type: functional
HUVEC [7] = assay: Antiinvasive activity in HUVEC cells assessed as decrease in cell invasion at 0.25 to 1 uM measured after 48 hrs by crystal violet staining based transwell assay; assay type: functional; conditions: Homo sapiens, dose 0.25-1 µM
U-937 = assay: Antiproliferative activity against human U-937 cells assessed as reduction in cell viability measured after 72 hrs by MTT assay; assay type: functional, cell-based; conditions: U-937, 72 h
A549 [8] = assay: Induction of apoptosis in human A549 cells assessed as live cells at 2.5 uM measured after 48 hrs by Annexin V-FITC/PI staining based flow cytometry analysis (Rvb= 97.1%); assay type: functional
A549 [9] = assay: Induction of apoptosis in human A549 cells assessed as late apoptotic cells at 5 uM measured after 48 hrs by Annexin V-FITC/PI staining based flow cytometry analysis (Rvb= 1.47%); assay type: functional
HUVEC [10] = assay: Inhibition of cell migration in HUVEC cells assessed as decrease in closure of wound scratching measured after 48 hrs by wound healing assay; assay type: functional, cell-based; conditions: Homo sapiens, dose 0.25-1 µM
Tubulin (Homo sapiens) [11] = target: T1, Tubulin (Homo sapiens); assay: Displacement of [3H]colchicine binding to tubulin (unknown origin); assay type: protein-complex assay
Danio rerio [12] = species: Danio rerio; assay: Antiangiogenic activity in transgenic Tg(flk:EGFP) zebra fish embryos assessed as reduction in number of intersegmental vessels measured at 30 hrs post fertilization by confocal fluorescence microscopy analysis; assay type: functional, organism-based; conditions: dose 1-4 µM
A549 [13] = assay: Induction of apoptosis in human A549 cells assessed as early apoptotic cells at 5 uM measured after 48 hrs by Annexin V-FITC/PI staining based flow cytometry analysis (Rvb= 0.72%); assay type: functional
A549 [14] = assay: Induction of apoptosis in human A549 cells assessed as dead cells at 5 uM measured after 48 hrs by Annexin V-FITC/PI staining based flow cytometry analysis (Rvb= 0.67%); assay type: functional
A549 [15] = assay: Induction of cell cycle arrest in human A549 cells assessed as accumulation of cells at S phase at 2.5 uM measured after 48 hrs by flow cytometry analysis (Rvb= 24.5%); assay type: functional
A549 [16] = assay: Antiproliferative activity against human A549 cells assessed as reduction in cell viability measured after 72 hrs by MTT assay; assay type: functional, cell-based; conditions: A549, 72 h
HUVEC [17] = assay: Antivascular activity against HUVEC cells assessed as reduction in area covered by HUVECs measured after 6 hrs by imaging analysis; assay type: functional, cell-based; conditions: Homo sapiens, dose 0.25-1 µM
A549 [18] = assay: Induction of apoptosis in human A549 cells assessed as dead cells at 2.5 uM measured after 48 hrs by Annexin V-FITC/PI staining based flow cytometry analysis (Rvb= 0.67%); assay type: functional
A549 [19] = assay: Induction of cell cycle arrest in human A549 cells assessed as increase in number of cells accumulation at G2/M phase at 2.5 uM measured after 48 hrs by flow cytometry analysis (Rvb= 16.72%); assay type: functional
[20] = Intrinsic clearance in human liver microsome; assay type: ADME, microsomes; conditions: microsomes
A549 [21] = assay: Induction of apoptosis in human A549 cells assessed as activation of the initiator caspase-9 measured after 48 hrs by western blot analysis; assay type: functional, cell-based
A549 [22] = assay: Induction of cell cycle arrest in human A549 cells assessed as accumulation of cells at G1 phase at 10 uM measured after 48 hrs by flow cytometry analysis (Rvb= 60.29%); assay type: functional
A549 [23] = assay: Induction of apoptosis in human A549 cells assessed as late apoptotic cells at 2.5 uM measured after 48 hrs by Annexin V-FITC/PI staining based flow cytometry analysis (Rvb= 1.47%); assay type: functional
[24] = Kinetic solubility of the compound at pH 2 by nephelometry; assay type: physicochemical; conditions: buffer, read-out: Kinetic_solubility
Danio rerio [25] = species: Danio rerio; assay: Antiangiogenic activity in transgenic Tg(flk:EGFP) zebra fish embryos assessed as disruption of intersegmental vessels formation measured at 30 hrs post fertilization by confocal fluorescence microscopy analysis; assay type: functional, organism-based
A549 [26] = assay: Induction of cell cycle arrest in human A549 cells assessed as increase in number of cells accumulation at G2/M phase at 10 uM measured after 48 hrs by flow cytometry analysis (Rvb= 16.72%); assay type: functional
HUVEC [27] = assay: Antivascular activity against HUVEC cells assessed as segment length measured after 6 hrs by imaging analysis; assay type: functional, cell-based; conditions: Homo sapiens, dose 0.25-1 µM
HUVEC [28] = assay: Inhibition of cell migration in HUVEC cells assessed as decrease in number of migrated endothelial cells at 0.25 to 1 uM measured after 48 hrs by crystal violet staining based transwell assay; assay type: functional; conditions: Homo sapiens, dose 0.25-1 µM
A549 [29] = assay: Induction of apoptosis in human A549 cells assessed as live cells at 10 uM measured after 48 hrs by Annexin V-FITC/PI staining based flow cytometry analysis (Rvb= 97.1%); assay type: functional
A549 [30] = assay: Induction of apoptosis in human A549 cells assessed as early apoptotic cells at 10 uM measured after 48 hrs by Annexin V-FITC/PI staining based flow cytometry analysis (Rvb= 0.72%); assay type: functional
HepG2 = assay: Antiproliferative activity against human HepG2 cells assessed as reduction in cell viability measured after 72 hrs by MTT assay; assay type: functional, cell-based; conditions: HepG2, 72 h
Tubulin (Homo sapiens) [31] = target: T1, Tubulin (Homo sapiens); assay: Induction of microtubule distruption in human A549 cells assessed as disseminated microtubules in cytoplasm at 2.5 to 10 uM measured after 48 hrs by immunofluorescence based laser scanning confocal microscopic analysis; assay type: cell-based; conditions: dose 2.5-10 µM
A549 [32] = assay: Induction of cell cycle arrest in human A549 cells assessed as accumulation of cells at G1 phase at 2.5 uM measured after 48 hrs by flow cytometry analysis (Rvb= 60.29%); assay type: functional
A549 [33] = assay: Induction of apoptosis in human A549 cells assessed as cleavage of PARP at 2.5 to 10 uM measured after 48 hrs by western blot analysis; assay type: functional, cell-based; conditions: dose 2.5-10 µM
A549 [34] = assay: Induction of apoptosis in human A549 cells assessed as activation of executioner caspase-3 at 2.5 to 10 uM measured after 48 hrs by western blot analysis; assay type: functional, cell-based; conditions: dose 2.5-10 µM

Question: Which Activity (Tubulin (Homo sapiens) [1]) does the source give for `COc1ccc2c(c1)-c1occ(C)c1C(=O)C2=O` here?
Answer: Its Activity is “Active”.

Question: And the Activity (A549 [2])?
Answer: The Activity was “Active”.

Question: What about the IC50 (HeLa) of the same molecule?
Answer: Its IC50 is 280 nM.

Question: And the inhibition (A549 [3])?
Answer: The inhibition was “Active”.

Question: What about the Activity (HUVEC [4]) of the same molecule?
Answer: Its Activity is “Dose-Dependent Effect”.

Question: And the Activity (A549 [5])?
Answer: Its Activity is 20%.

Question: And the Activity (A549 [6])?
Answer: The Activity was 1.55%.

Question: What about the Activity (HUVEC [7]) of the same molecule?
Answer: The Activity was “Active”.

Question: What about the IC50 (U-937) of the same molecule?
Answer: The IC50 was 2770 nM.

Question: And the Activity (A549 [8])?
Answer: The Activity was 94.5%.

Question: What about the Activity (A549 [9]) of the same molecule?
Answer: Its Activity is 5.58%.

Question: What about the inhibition (HUVEC [10]) of the same molecule?
Answer: The inhibition was “Dose-Dependent Effect”.

Question: And the Activity (Tubulin (Homo sapiens) [11])?
Answer: The Activity was “Active”.

Question: What about the Activity (Danio rerio [12]) of the same molecule?
Answer: Its Activity is “Dose-Dependent Effect”.

Question: What about the Activity (A549 [13]) of the same molecule?
Answer: The Activity was 10.3%.

Question: And the Activity (A549 [14])?
Answer: Its Activity is 1.28%.

Question: What about the Activity (A549 [15]) of the same molecule?
Answer: The Activity was 21.27%.

Question: And the IC50 (A549 [16])?
Answer: Its IC50 is 320 nM.

Question: What about the Activity (HUVEC [17]) of the same molecule?
Answer: Its Activity is “Dose-Dependent Effect”.

Question: What about the Activity (A549 [18]) of the same molecule?
Answer: Its Activity is 0.68%.

Question: What about the Activity (A549 [19]) of the same molecule?
Answer: Its Activity is 17.41%.

Question: And the CLH [20]?
Answer: Its CLH is 175 µL/min/mg.

Question: What about the Activity (A549 [21]) of the same molecule?
Answer: Its Activity is “Dose-Dependent Effect”.

Question: And the Activity (A549 [22])?
Answer: Its Activity is 55.29%.

Question: And the Activity (A549 [23])?
Answer: Its Activity is 3.28%.

Question: What about the solubility kinetic [24] of the same molecule?
Answer: The solubility kinetic was 250 µg/mL (≈ 1030 µM).

Question: And the Activity (Danio rerio [25])?
Answer: The Activity was “Dose-Dependent Effect”.

Question: And the Activity (A549 [26])?
Answer: Its Activity is 32.19%.

Question: What about the Activity (HUVEC [27]) of the same molecule?
Answer: Its Activity is “Dose-Dependent Effect”.

Question: And the inhibition (HUVEC [28])?
Answer: Its inhibition is “Active”.

Question: What about the Activity (A549 [29]) of the same molecule?
Answer: The Activity was 11.1%.

Question: What about the Activity (A549 [30]) of the same molecule?
Answer: The Activity was 80.2%.

Question: What about the IC50 (HepG2) of the same molecule?
Answer: Its IC50 is 2000 nM.

Question: What about the Activity (Tubulin (Homo sapiens) [31]) of the same molecule?
Answer: The Activity was “Active”.

Question: And the Activity (A549 [32])?
Answer: Its Activity is 61.93%.

Question: What about the Activity (A549 [33]) of the same molecule?
Answer: Its Activity is “Active”.

Question: What about the Activity (A549 [34]) of the same molecule?
Answer: The Activity was “Active”.
